Measured values from PMC8330742, “New benzothieno[2,3-c]pyridines as non-steroidal CYP17 inhibitors: design, synthesis, anticancer screening, apoptosis induction, and in silico ADME profile studies” (Journal of Enzyme Inhibition and Medicinal Chemistry, 2021).

Assays:
OVCAR-8 = assay: NCI-60 SRB screen; assay type: cell-based, human; settings: Homo sapiens; single dose 10^−5 M; OVCAR-8, Ovarian cancer; read-out: Growth inhibition (%)
ACHN = assay: NCI-60 SRB screen; assay type: cell-based; settings: Homo sapiens, single dose 10^−5 M, Renal cancer, read-out: Growth inhibition (%)
HCT-116 = assay: NCI-60 SRB screen; assay type: cell-based, human; settings: Homo sapiens; single dose 10^−5 M; HCT-116, Colon cancer; read-out: Growth inhibition (%)
HCT-15 = assay: NCI-60 SRB screen; assay type: cell-based, human; settings: Homo sapiens; single dose 10^−5 M; HCT-15, Colon cancer; read-out: Growth inhibition (%)
NCI-H460 = assay: NCI-60 SRB screen; assay type: cell-based, human; settings: Homo sapiens; single dose 10^−5 M; NCI-H460, Non-small cell lung carcinoma; read-out: Growth inhibition (%)
COLO 205 = assay: NCI-60 SRB screen; assay type: cell-based, human; settings: Homo sapiens; single dose 10^−5 M; COLO 205, Colon cancer; read-out: Growth inhibition (%)
SF-268 = assay: NCI-60 SRB screen; assay type: cell-based, human; settings: Homo sapiens; single dose 10^−5 M; SF-268, CNS cancer; read-out: Growth inhibition (%)
NCI-H522 = assay: NCI-60 SRB screen; assay type: cell-based, human; settings: Homo sapiens; single dose 10^−5 M; NCI-H522, Non-small cell lung carcinoma; read-out: Growth inhibition (%)
EKVX = assay: NCI-60 SRB screen; assay type: cell-based, human; settings: Homo sapiens, single dose 10^−5 M, Non-small cell lung carcinoma, read-out: Growth inhibition (%)
UO-31 = assay: NCI-60 SRB screen; assay type: cell-based, human; settings: Homo sapiens; single dose 10^−5 M; UO-31, Renal cancer; read-out: Growth inhibition (%)
OVCAR-4 = assay: NCI-60 SRB screen; assay type: cell-based, human; settings: Homo sapiens; single dose 10^−5 M; OVCAR-4, Ovarian cancer; read-out: Growth inhibition (%)
[1] = system: panel of 60 cancer cell lines; assay: NCI-60 SRB screen, mean or range over the panel; assay type: cell-based, human; settings: Homo sapiens; mean over the cell lines; single dose 10^−5 M; read-out: Mean growth inhibition (%)
CCRF-CEM = assay: NCI-60 SRB screen; assay type: cell-based; settings: Homo sapiens, single dose 10^−5 M, Leukaemia, read-out: Growth inhibition (%)
K-562 = assay: NCI-60 SRB screen; assay type: cell-based, human; settings: Homo sapiens, K562; single dose 10^−5 M; K-562, Leukaemia; read-out: Growth inhibition (%)
SK-OV-3 = assay: NCI-60 SRB screen; assay type: cell-based, human; settings: Homo sapiens; single dose 10^−5 M; SK-OV-3, Ovarian cancer; read-out: Growth inhibition (%)
MALME-3M = assay: NCI-60 SRB screen; assay type: cell-based, human; settings: Homo sapiens, single dose 10^−5 M, Melanoma, read-out: Growth inhibition (%)
KM12 = assay: NCI-60 SRB screen; assay type: cell-based, human; settings: Homo sapiens; single dose 10^−5 M; KM12, Colon cancer; read-out: Growth inhibition (%)
HT-29 = assay: NCI-60 SRB screen; assay type: cell-based; settings: Homo sapiens; single dose 10^−5 M; HT-29, Colon cancer; read-out: Growth inhibition (%)
NCI-H23 = assay: NCI-60 SRB screen; assay type: cell-based, human; settings: Homo sapiens; single dose 10^−5 M; NCI-H23, Non-small cell lung carcinoma; read-out: Growth inhibition (%)
MOLT-4 = assay: NCI-60 SRB screen; assay type: cell-based; settings: Homo sapiens; single dose 10^−5 M; MOLT-4, Leukaemia; read-out: Growth inhibition (%)
TK-10 = assay: NCI-60 SRB screen; assay type: cell-based, human; settings: Homo sapiens; single dose 10^−5 M; TK-10, Renal cancer; read-out: Growth inhibition (%)
SK-MEL-5 = assay: NCI-60 SRB screen; assay type: cell-based, human; settings: Homo sapiens; single dose 10^−5 M; SK-MEL-5, Melanoma; read-out: Growth inhibition (%)
UACC-257 = assay: NCI-60 SRB screen; assay type: cell-based, human; settings: Homo sapiens; single dose 10^−5 M; UACC-257, Melanoma; read-out: Growth inhibition (%)
786-0 = assay: NCI-60 SRB screen; assay type: cell-based; settings: Homo sapiens; single dose 10^−5 M; 786-0, Renal cancer; read-out: Growth inhibition (%)
M14 = assay: NCI-60 SRB screen; assay type: cell-based, human; settings: Homo sapiens; single dose 10^−5 M; M14, Melanoma; read-out: Growth inhibition (%)
NCI-H322M = assay: NCI-60 SRB screen; assay type: cell-based, human; settings: Homo sapiens, single dose 10^−5 M, Non-small cell lung carcinoma, read-out: Growth inhibition (%)
NCI-H226 = assay: NCI-60 SRB screen; assay type: cell-based, human; settings: Homo sapiens; single dose 10^−5 M; NCI-H226, Non-small cell lung carcinoma; read-out: Growth inhibition (%)
SK-MEL-28 = assay: NCI-60 SRB screen; assay type: cell-based; settings: Homo sapiens; single dose 10^−5 M; SK-MEL-28, Melanoma; read-out: Growth inhibition (%)
HL-60(TB) = assay: NCI-60 SRB screen; assay type: cell-based, human; settings: Homo sapiens; single dose 10^−5 M; HL-60(TB), Leukaemia; read-out: Growth inhibition (%)
A549/ATCC = assay: NCI-60 SRB screen; assay type: cell-based, human; settings: Homo sapiens, single dose 10^−5 M, Non-small cell lung carcinoma, read-out: Growth inhibition (%)
SW-620 = assay: NCI-60 SRB screen; assay type: cell-based; settings: Homo sapiens; single dose 10^−5 M; SW-620, Colon cancer; read-out: Growth inhibition (%)
IGROV1 = assay: NCI-60 SRB screen; assay type: cell-based, human; settings: Homo sapiens, IGROV-1; single dose 10^−5 M; IGROV1, Ovarian cancer; read-out: Growth inhibition (%)
HOP-62 = assay: NCI-60 SRB screen; assay type: cell-based, human; settings: Homo sapiens; single dose 10^−5 M; HOP-62, Non-small cell lung carcinoma; read-out: Growth inhibition (%)
LOX IMVI = assay: NCI-60 SRB screen; assay type: cell-based, human; settings: Homo sapiens, single dose 10^−5 M, Melanoma, read-out: Growth inhibition (%)
SN12C = assay: NCI-60 SRB screen; assay type: cell-based, human; settings: Homo sapiens, SN12C; single dose 10^−5 M; SN 12 C, Renal cancer; read-out: Growth inhibition (%)
SF-295 = assay: NCI-60 SRB screen; assay type: cell-based, human; settings: Homo sapiens; single dose 10^−5 M; SF-295, CNS cancer; read-out: Growth inhibition (%)
CAKI-1 = assay: NCI-60 SRB screen; assay type: cell-based, human; settings: Homo sapiens; single dose 10^−5 M; CAKI-1, Renal cancer; read-out: Growth inhibition (%)
UACC-62 = assay: NCI-60 SRB screen; assay type: cell-based, human; settings: Homo sapiens; single dose 10^−5 M; UACC-62, Melanoma; read-out: Growth inhibition (%)
OVCAR-3 = assay: NCI-60 SRB screen; assay type: cell-based, human; settings: Homo sapiens; single dose 10^−5 M; OVCAR-3, Ovarian cancer; read-out: Growth inhibition (%)
HOP-92 = assay: NCI-60 SRB screen; assay type: cell-based, human; settings: Homo sapiens; single dose 10^−5 M; HOP-92, Non-small cell lung carcinoma; read-out: Growth inhibition (%)
NCI/ADR-RES = assay: NCI-60 SRB screen; assay type: cell-based, human; settings: Homo sapiens, single dose 10^−5 M, Ovarian cancer, read-out: Growth inhibition (%)
RXF 393 = assay: NCI-60 SRB screen; assay type: cell-based, human; settings: Homo sapiens; single dose 10^−5 M; RXF 393, Renal cancer; read-out: Growth inhibition (%)
HCC-2998 = assay: NCI-60 SRB screen; assay type: cell-based, human; settings: Homo sapiens; single dose 10^−5 M; HCC-2998, Colon cancer; read-out: Growth inhibition (%)
SK-MEL-2 = assay: NCI-60 SRB screen; assay type: cell-based, human; settings: Homo sapiens; single dose 10^−5 M; SK-MEL-2, Melanoma; read-out: Growth inhibition (%)

O=[N+]([O-])c1cccc(C2NC(N3CCCCC3)=C(Cl)c3c2sc2c(F)cccc32)c1 (stereo not shown) [Compound 8c, 4-Chloro-3-(piperidin-1-yl)-8-fluoro-1-(3-nitrophenyl)-1,2-dihydro [1]benzothieno[2,3-c]pyridine]
inhibition at 10 µM (OVCAR-8): -6.18% | inhibition at 10 µM (ACHN): 6.2% | inhibition at 10 µM (HCT-116): 1.95% | inhibition at 10 µM (HCT-15): 3.84% | inhibition at 10 µM (NCI-H460): 3% | inhibition at 10 µM (COLO 205): -12.7% | inhibition at 10 µM (SF-268): 6.19% | inhibition at 10 µM (NCI-H522): 17.7% | inhibition at 10 µM (EKVX): 19.1% | inhibition at 10 µM (UO-31): 38% | inhibition at 10 µM (OVCAR-4): 12.3% | inhibition at 10 µM [1]: 7.22% | inhibition at 10 µM (CCRF-CEM): 30.3% | inhibition at 10 µM (K-562): 14.1% | inhibition at 10 µM (SK-OV-3): 9.9% | inhibition at 10 µM (MALME-3M): 4.61% | inhibition at 10 µM (KM12): 3.41% | inhibition at 10 µM (HT-29): -2.62% | inhibition at 10 µM (NCI-H23): 3.42% | inhibition at 10 µM (MOLT-4): 35.6% | inhibition at 10 µM (TK-10): -22.4% | inhibition at 10 µM (SK-MEL-5): 0.27% | inhibition at 10 µM (UACC-257): -10.3% | inhibition at 10 µM (786-0): -0.24% | inhibition at 10 µM (M14): 1.39% | inhibition at 10 µM (NCI-H322M): -0.59% | inhibition at 10 µM (NCI-H226): 28.2% | inhibition at 10 µM (SK-MEL-28): -16.7% | inhibition at 10 µM (HL-60(TB)): 18.7% | inhibition at 10 µM (A549/ATCC): 5.05% | inhibition at 10 µM (SW-620): 1.71% | inhibition at 10 µM (IGROV1): 17.4% | inhibition at 10 µM (HOP-62): 5.22% | inhibition at 10 µM (LOX IMVI): -0.7% | inhibition at 10 µM (SN12C): 3.66% | inhibition at 10 µM (SF-295): -6.6% | inhibition at 10 µM (CAKI-1): 18.8% | inhibition at 10 µM (UACC-62): 8.57% | inhibition at 10 µM (OVCAR-3): -1.68% | inhibition at 10 µM (HOP-92): 9.27% | inhibition at 10 µM (NCI/ADR-RES): -2.62% | inhibition at 10 µM (RXF 393): -15.6% | inhibition at 10 µM (HCC-2998): -6.85% | inhibition at 10 µM (SK-MEL-2): 2.66%

CCN1CCN(C2=C(C#N)c3c(sc4c(F)cccc34)C(c3cccc([N+](=O)[O-])c3)N2)CC1 (stereo not shown) [Compound 8d, 4-Cyano-3-(4-ethylpiperazin-1-yl)-8-fluoro-1-(3-nitrophenyl)-1,2-dihydro [1]benzothieno[2,3-c]pyridine]
inhibition at 10 µM (OVCAR-8): -1.56% | inhibition at 10 µM (ACHN): 9.28% | inhibition at 10 µM (HCT-116): 1.31% | inhibition at 10 µM (HCT-15): -6.34% | inhibition at 10 µM (NCI-H460): -1.12% | inhibition at 10 µM (COLO 205): -5.97% | inhibition at 10 µM (SF-268): 4.87% | inhibition at 10 µM (NCI-H522): 4.68% | inhibition at 10 µM (EKVX): 12.5% | inhibition at 10 µM (UO-31): 33.5% | inhibition at 10 µM (OVCAR-4): -0.52% | inhibition at 10 µM [1]: 1.33% | inhibition at 10 µM (CCRF-CEM): -0.37% | inhibition at 10 µM (K-562): 4.11% | inhibition at 10 µM (SK-OV-3): 11.5% | inhibition at 10 µM (MALME-3M): -7.54% | inhibition at 10 µM (KM12): -0.49% | inhibition at 10 µM (HT-29): -4.51% | inhibition at 10 µM (NCI-H23): 3.9% | inhibition at 10 µM (MOLT-4): 8.62% | inhibition at 10 µM (TK-10): -37% | inhibition at 10 µM (SK-MEL-5): -10.7% | inhibition at 10 µM (UACC-257): -23.7% | inhibition at 10 µM (786-0): -9.68% | inhibition at 10 µM (M14): 4.65% | inhibition at 10 µM (NCI-H322M): 1.85% | inhibition at 10 µM (NCI-H226): 15.7% | inhibition at 10 µM (SK-MEL-28): -15.8% | inhibition at 10 µM (HL-60(TB)): -15.6% | inhibition at 10 µM (A549/ATCC): -2.72% | inhibition at 10 µM (SW-620): 3.43% | inhibition at 10 µM (IGROV1): 23.7% | inhibition at 10 µM (HOP-62): 16.1% | inhibition at 10 µM (LOX IMVI): 4.73% | inhibition at 10 µM (SN12C): 1.95% | inhibition at 10 µM (SF-295): -1.19% | inhibition at 10 µM (CAKI-1): 25.2% | inhibition at 10 µM (UACC-62): 6.81% | inhibition at 10 µM (OVCAR-3): -2.65% | inhibition at 10 µM (HOP-92): 18.9% | inhibition at 10 µM (NCI/ADR-RES): -4.88% | inhibition at 10 µM (RXF 393): -3.67% | inhibition at 10 µM (HCC-2998): -12.2% | inhibition at 10 µM (SK-MEL-2): 1.77%
